Activity calls are given as the source filed them. Rule as the data show it: actives have a measured IC50 and inactives only a lower limit.
How the values were obtained:
Type in all cases: functional
[1] = target: T1, Sentrin-specific protease 8 (Homo sapiens, UniProt Q96LD8); experiment: inhibition of human SENP8 cleavage activity – biochemical, luminescence, SAR follow-up (AID 504501)
T1 sequence (Q96LD8 whole entry): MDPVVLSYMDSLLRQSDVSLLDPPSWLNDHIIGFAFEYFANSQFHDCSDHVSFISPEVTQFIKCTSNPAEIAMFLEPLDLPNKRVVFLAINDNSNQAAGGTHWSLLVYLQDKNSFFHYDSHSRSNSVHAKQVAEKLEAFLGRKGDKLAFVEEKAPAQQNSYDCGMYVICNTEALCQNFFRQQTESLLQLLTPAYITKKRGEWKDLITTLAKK

Caspase-3 = target: T2, Caspase-3 (Homo sapiens, UniProt P42574); experiment: SAR Analysis of small molecule inhibitors of Sentrin-specific proteases (SENPs) using a Caspase-3 Selectivity assay. [Related pubchem assays (depositor defined):AID2540, AID2599, AID434973, AID489001]
T2 sequence (P42574 whole entry): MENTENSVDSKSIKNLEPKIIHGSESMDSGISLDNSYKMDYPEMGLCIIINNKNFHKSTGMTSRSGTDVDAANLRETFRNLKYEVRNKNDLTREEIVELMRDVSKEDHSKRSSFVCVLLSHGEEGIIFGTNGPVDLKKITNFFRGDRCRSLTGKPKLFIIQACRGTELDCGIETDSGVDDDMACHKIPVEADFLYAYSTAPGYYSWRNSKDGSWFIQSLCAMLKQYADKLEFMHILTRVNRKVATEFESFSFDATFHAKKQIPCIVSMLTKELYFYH

[2] = target: T3, Sentrin-specific protease 6 (Homo sapiens, UniProt Q9GZR1); experiment: SAR Analysis of small molecule inhibitors of Sentrin-specific protease 6 (SENP6) using a Luminescent assay. [Related pubchem assays (depositor defined):AID2582, AID2599]
T3 sequence (Q9GZR1 whole entry): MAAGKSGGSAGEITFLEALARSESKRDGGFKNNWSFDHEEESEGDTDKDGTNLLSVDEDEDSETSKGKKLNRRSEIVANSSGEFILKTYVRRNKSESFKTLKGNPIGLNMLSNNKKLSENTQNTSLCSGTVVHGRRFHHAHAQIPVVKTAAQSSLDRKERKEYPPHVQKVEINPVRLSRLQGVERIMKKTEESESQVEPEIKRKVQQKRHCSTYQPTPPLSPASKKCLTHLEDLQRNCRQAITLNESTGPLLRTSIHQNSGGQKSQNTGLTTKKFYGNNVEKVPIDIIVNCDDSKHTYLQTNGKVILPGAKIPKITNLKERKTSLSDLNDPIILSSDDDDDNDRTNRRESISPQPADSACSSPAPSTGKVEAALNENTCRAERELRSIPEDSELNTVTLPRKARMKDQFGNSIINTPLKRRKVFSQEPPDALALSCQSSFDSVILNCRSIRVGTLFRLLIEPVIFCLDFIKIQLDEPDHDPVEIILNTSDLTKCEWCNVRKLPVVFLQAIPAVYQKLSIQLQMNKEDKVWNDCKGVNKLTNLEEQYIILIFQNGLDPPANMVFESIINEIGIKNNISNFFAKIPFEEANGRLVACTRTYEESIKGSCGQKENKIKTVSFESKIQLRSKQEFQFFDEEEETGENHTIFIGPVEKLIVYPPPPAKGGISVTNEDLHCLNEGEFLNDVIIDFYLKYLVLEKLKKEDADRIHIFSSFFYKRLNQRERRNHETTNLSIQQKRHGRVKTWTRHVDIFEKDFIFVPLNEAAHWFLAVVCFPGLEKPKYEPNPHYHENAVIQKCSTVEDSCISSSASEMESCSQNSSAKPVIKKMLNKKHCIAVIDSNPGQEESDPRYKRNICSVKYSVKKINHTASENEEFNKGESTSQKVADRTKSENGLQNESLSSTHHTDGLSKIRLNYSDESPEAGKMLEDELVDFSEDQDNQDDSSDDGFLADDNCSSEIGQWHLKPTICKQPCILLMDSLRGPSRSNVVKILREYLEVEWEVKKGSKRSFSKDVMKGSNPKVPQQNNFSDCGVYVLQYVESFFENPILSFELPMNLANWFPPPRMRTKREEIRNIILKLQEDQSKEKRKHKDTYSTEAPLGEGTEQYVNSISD

[3] = target: T4, Sentrin-specific protease 7 (Homo sapiens, UniProt Q9BQF6); experiment: inhibition of human SENP7 cleavage activity – biochemical, luminescence, SAR follow-up (AID 504497)
T4 sequence (Q9BQF6 whole entry): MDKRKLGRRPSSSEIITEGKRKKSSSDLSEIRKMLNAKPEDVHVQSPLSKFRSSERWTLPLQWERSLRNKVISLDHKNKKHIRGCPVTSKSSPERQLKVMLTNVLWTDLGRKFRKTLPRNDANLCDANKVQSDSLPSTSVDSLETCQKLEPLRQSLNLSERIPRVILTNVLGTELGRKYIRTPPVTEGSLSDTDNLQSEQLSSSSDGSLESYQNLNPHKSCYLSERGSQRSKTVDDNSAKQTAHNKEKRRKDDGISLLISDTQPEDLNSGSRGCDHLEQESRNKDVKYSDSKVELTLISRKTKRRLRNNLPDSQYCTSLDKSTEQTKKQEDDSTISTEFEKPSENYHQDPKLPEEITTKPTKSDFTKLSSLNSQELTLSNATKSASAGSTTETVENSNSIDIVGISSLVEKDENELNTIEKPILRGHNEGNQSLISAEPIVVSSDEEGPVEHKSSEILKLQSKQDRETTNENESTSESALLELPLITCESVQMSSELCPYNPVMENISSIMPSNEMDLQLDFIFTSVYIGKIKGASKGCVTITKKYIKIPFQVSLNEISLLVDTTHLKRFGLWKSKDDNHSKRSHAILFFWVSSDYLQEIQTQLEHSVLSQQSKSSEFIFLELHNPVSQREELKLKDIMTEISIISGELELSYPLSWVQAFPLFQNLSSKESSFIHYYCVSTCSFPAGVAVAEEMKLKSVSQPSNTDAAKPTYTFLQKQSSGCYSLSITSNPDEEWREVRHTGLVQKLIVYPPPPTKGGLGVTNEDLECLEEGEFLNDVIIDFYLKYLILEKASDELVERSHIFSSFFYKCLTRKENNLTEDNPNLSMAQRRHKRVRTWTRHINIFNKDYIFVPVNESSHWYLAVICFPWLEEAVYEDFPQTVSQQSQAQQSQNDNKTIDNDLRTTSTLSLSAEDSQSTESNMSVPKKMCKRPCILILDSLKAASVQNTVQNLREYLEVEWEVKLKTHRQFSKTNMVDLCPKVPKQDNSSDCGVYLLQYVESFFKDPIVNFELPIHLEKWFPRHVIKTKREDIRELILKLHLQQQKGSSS

| IC50 (Caspase-3) | IC50 [2] | IC50 [3] | Structure (SMILES) | IC50 [1] |
| --- | --- | --- | --- | --- |
| > 99 µM (inactive) | > 99 µM (inactive) | > 99 µM (inactive) | Cc1nn(CC(=O)Nc2sc3c(c2C#N)CCCC3)c(C)c1I | > 99 µM (inactive) |
| > 99 µM (inactive) | > 99 µM (inactive) | > 99 µM (inactive) | CN(C)CCN(C(=O)c1ccc(S(=O)(=O)N2CCCCCC2)cc1)c1nc2cc3c(cc2s1)OCCO3 | > 99 µM (inactive) |
